Reference: the supplement of paper PMC10307832

Key:
Assay in all cases: relative viability (nuclei count vs DMSO), 5 days (fraction); higher = more cells survive
Sunitinib + Olaparib = compound: CCN(CC)CCNC(=O)c1c(C)[nH]c(/C=C2\C(=O)Nc3ccc(F)cc32)c1C [Sunitinib] + O=C(c1cc(Cc2n[nH]c(=O)c3ccccc23)ccc1F)N1CCN(C(=O)C2CC2)CC1 [Olaparib] (partner 8 µM)
In short: (§1)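 Medians of duplicate plates are given as relative viability. That measure is the nuclei count in treated wells divided by the count in vehicle wells. Counts were taken on 4× images of lung cancer cell lines in 1536-well plates, 5 days after pin-tool dosing the day after seeding with one drug alone or a fixed anchor-drug dose plus five library-drug doses (not always all listed) in √10 steps.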

Sunitinib + Foretinib = compound: CCN(CC)CCNC(=O)c1c(C)[nH]c(/C=C2\C(=O)Nc3ccc(F)cc32)c1C [Sunitinib] + COc1cc2c(Oc3ccc(NC(=O)C4(C(=O)Nc5ccc(F)cc5)CC4)cc3F)ccnc2cc1OCCCN1CCOCC1 [Foretinib] (partner 0.25 µM)
In short: as §1

Sunitinib + Alpelisib = compound: CCN(CC)CCNC(=O)c1c(C)[nH]c(/C=C2\C(=O)Nc3ccc(F)cc32)c1C [Sunitinib] + Cc1nc(NC(=O)N2CCC[C@H]2C(N)=O)sc1-c1ccnc(C(C)(C)C(F)(F)F)c1 [Alpelisib] (partner 2 µM)
In short: as §1

Sunitinib + Pemetrexed = compound: CCN(CC)CCNC(=O)c1c(C)[nH]c(/C=C2\C(=O)Nc3ccc(F)cc32)c1C [Sunitinib] + Nc1nc2[nH]cc(CCc3ccc(C(=O)N[C@@H](CCC(=O)O)C(=O)O)cc3)c2c(=O)[nH]1 [Pemetrexed] (partner 0.2 µM)
In short: as §1

| Cell Line | relative viability (Sunitinib + Olaparib; first compound 0.02 µM) | relative viability (Sunitinib + Olaparib; first compound 0.06325 µM) | relative viability (Sunitinib + Olaparib; first compound 0.2 µM) | relative viability (Sunitinib + Olaparib; first compound 0.6325 µM) | relative viability (Sunitinib + Olaparib; first compound 2 µM) | relative viability (Sunitinib + Foretinib; first compound 0.02 µM) | relative viability (Sunitinib + Foretinib; first compound 0.06325 µM) | relative viability (Sunitinib + Foretinib; first compound 0.2 µM) | relative viability (Sunitinib + Foretinib; first compound 0.6325 µM) | relative viability (Sunitinib + Foretinib; first compound 2 µM) | relative viability (Sunitinib + Alpelisib; first compound 0.02 µM) | relative viability (Sunitinib + Alpelisib; first compound 0.06325 µM) | relative viability (Sunitinib + Alpelisib; first compound 0.2 µM) | relative viability (Sunitinib + Alpelisib; first compound 2 µM) | relative viability (Sunitinib + Pemetrexed; first compound 0.02 µM) | relative viability (Sunitinib + Pemetrexed; first compound 0.06325 µM) | relative viability (Sunitinib + Pemetrexed; first compound 0.2 µM) | relative viability (Sunitinib + Pemetrexed; first compound 0.6325 µM) | relative viability (Sunitinib + Pemetrexed; first compound 2 µM) | relative viability (Sunitinib + Alpelisib; first compound 0.6325 µM) |
| --- | --- | --- | --- | --- | --- | --- | --- | --- | --- | --- | --- | --- | --- | --- | --- | --- | --- | --- | --- | --- |
| HARA | 0.718 | 0.966 | 0.801 | 0.786 | 0.7 | 0.857 | 1.13 | 0.97 | 0.991 | 0.868 | 0.816 | 0.947 | 0.979 | 0.743 | 0.26 | 0.274 | 0.241 | 0.222 | 0.263 |  |
| H3255 | 0.541 | 0.605 | 0.6 | 0.593 | 0.56 | 0.782 | 0.573 | 0.819 | 0.861 | 1.01 | 0.696 | 0.756 | 0.776 | 0.707 | 0.557 | 0.558 | 0.567 | 0.552 | 0.612 | 0.891 |
| A-427 | 0.701 | 0.721 | 0.832 | 0.848 | 0.771 | 1.03 | 1.12 | 1.08 | 1.1 | 1.11 | 1.06 | 1.06 | 1.15 | 1.05 | 0.993 | 1 | 0.95 | 0.997 | 1.01 | 1.08 |
| NCI-H1944 | 0.39 | 0.414 | 0.473 | 0.43 | 0.447 | 0.738 | 1 | 0.962 | 0.944 | 0.863 | 0.798 | 0.883 | 1.02 |  | 0.588 |  | 0.772 | 0.684 | 0.655 | 0.964 |
| EMC-BAC-2 | 0.462 | 0.52 | 0.539 | 0.529 | 0.582 | 0.973 | 1.08 | 1.15 | 1.07 | 0.969 | 0.712 | 0.742 | 0.901 | 0.72 | 0.427 | 0.426 | 0.472 | 0.481 | 0.464 | 0.791 |
| NCI-H727 | 0.747 | 0.649 | 0.717 | 0.593 | 0.778 | 0.926 | 0.837 | 1.12 | 0.979 | 0.788 | 0.532 | 0.546 | 0.647 | 0.537 |  |  |  |  |  | 0.559 |
| ChaGo-K-1 | 0.483 | 0.466 | 0.414 | 0.435 | 0.441 | 0.852 | 0.906 | 1 | 0.914 | 0.869 |  |  |  |  | 0.263 | 0.268 | 0.258 | 0.255 | 0.258 |  |
| NCI-H1563 |  |  |  |  |  | 0.822 | 1.05 | 0.999 | 1.03 | 0.993 | 0.984 | 0.952 | 0.884 | 0.965 | 0.759 | 0.727 | 0.782 | 0.721 | 0.852 | 0.93 |
| NCI-H1648 | 1.11 | 0.583 |  | 0.751 | 0.707 |  |  |  |  |  |  |  |  |  | 0.897 | 0.737 | 0.898 | 0.704 | 0.835 |  |
| Calu-6 | 0.575 | 0.57 | 0.598 | 0.571 | 0.614 | 0.836 | 0.951 | 0.913 | 0.963 |  | 0.904 | 1.1 | 1.11 | 0.898 |  |  |  |  |  | 1.16 |
| SW 900 | 0.794 | 1.04 | 0.847 | 1.1 | 0.945 | 0.834 | 0.934 | 0.865 | 0.966 | 0.834 |  |  |  |  | 0.466 | 0.495 | 0.491 | 0.5 | 0.501 |  |
| NCI-H1299 | 0.935 | 0.977 | 0.998 | 1.02 | 0.991 | 1.07 | 1.15 | 1.14 | 1.08 | 1.12 | 1.02 |  | 1.06 | 1.06 |  |  |  |  |  | 1.08 |
| NCI-H1650 | 0.744 | 0.742 | 0.822 | 0.791 | 0.738 | 1.23 | 1.14 | 1.09 | 0.977 | 1.08 |  |  |  |  | 0.399 | 0.307 | 0.411 | 0.346 | 0.448 |  |
| IA-LM | 0.826 | 0.973 | 0.842 |  | 0.981 | 1.12 | 1.32 | 1.25 | 1.14 | 1.19 | 0.645 | 0.812 | 0.773 | 0.87 |  |  |  |  |  | 0.919 |
| HCC-44 | 0.958 | 0.97 | 0.979 | 1 | 1.05 |  |  |  |  |  | 0.72 | 0.909 | 0.966 | 0.826 | 0.615 | 0.607 | 0.676 | 0.68 | 0.692 | 0.863 |
| NCI-H522 | 0.623 | 0.574 | 0.75 | 0.616 | 0.641 |  |  |  |  |  |  |  |  |  | 0.861 | 1.12 | 0.915 | 0.858 | 0.999 |  |
| ABC-1 | 0.728 | 0.919 | 0.868 | 1.06 | 0.966 | 1.01 | 1.07 | 1.3 | 1.26 | 1 | 1.08 | 0.994 | 1.2 | 0.837 |  |  |  |  |  | 1.26 |
| NCI-H1703 | 0.229 | 0.267 | 0.251 | 0.154 | 0.157 | 0.333 | 0.25 | 0.284 | 0.306 | 0.254 | 0.211 | 0.161 | 0.199 | 0.188 |  |  |  |  |  | 0.154 |
| NCI-H1792 | 0.491 | 0.371 | 0.98 | 0.404 | 0.384 |  |  |  |  |  | 0.578 | 0.56 | 0.78 | 0.824 | 0.619 | 0.942 | 1.26 | 1.21 | 0.775 | 0.682 |
